Experiments:
Aiolos = target: T1, Aiolos (Homo sapiens, UniProt Q96SW2+Q9UKT9); test: Aiolos degradation in human PBMCs, flow cytometry (IMiD activity); format: cell-based; settings: 24 hours; for DC50: Aiolos degradation; for Dmax: read-out: Dmax (maximum percent Aiolos degradation)
T1 construct: endogenous in cells; host or cells: human PBMCs (CD20+CD3- B cells, CD3+CD20- T cells)
Procedure: Frozen human peripheral blood mononuclear cells (PBMCs) were thawed and treated with DMSO or compound for 24 hours and then fixed and permeabilized using a Foxp3/Transcription Factor Fixation/Permeabilization Kit (eBioscience, 00-5523). Cells were stained with fluorophore-conjugated antibodies against CD20 (Biolegend 302330), CD3 (BD Pharmingen 552127), and Aiolos (Biolegend 371106). An additional set of DMSO-treated PBMCs was stained for CD20, CD3, and an AlexaFluor 647-conjugated mouse IgG1 isotype control antibody (Biolegend 400136). Stained cells were run on an Attune NxT Acoustic Focusing Flow Cytometer (Thermo-Fisher A29004), and data was analyzed using FlowJo (v10.5.3) and GraphPad Prism (v7.00) software. Single lymphocytes were gated for B cells (CD20+CD3−) and T cells (CD3+CD20−), and the geometric mean fluorescence intensity (MFI) of Aiolos was calculated for each population. The MFI of the isotype control was calculated for each population and used to quantify background staining. Percent Aiolos degradation was calculated for each compound-treated sample using the following equation: […]
DC50 is the compound concentration degrading […] of Aiolos. Dmax is the maximum percent Aiolos degradation in the assay.

arthritis = test: Arthritis model, clinical arthritis score and body weight; format: in vivo, mice; settings: daily oral treatment at 30 mg/kg, compared to dexamethasone and vehicle
Procedure: Significance of clinical arthritis score (A) was determined from the area under the curve (AUC) of mean paw scores calculated for individual mice. (C) Serum levels of anti-type II collagen IgG. Statistical significance was determined between vehicle control and treated groups with one-way Kruskal-Wallis ANOVA and Dunn's multiple comparisons test.

BTK = target: T2, BTK (Homo sapiens, UniProt Q06187); test: BTK degradation and anti-tumor activity in preclinical models; format: in vivo
T2 construct: host or cells: preclinical models (not described)

Ikaros = target: T3, Ikaros (Homo sapiens, UniProt Q13422+Q96SW2); test: Ikaros degradation in patient PBMCs, Western blot (Jess Simple Western); format: in vivo; settings: Cycle 1 Day 8
T3 construct: from tissue; host or cells: patient PBMCs, lysed after in vivo dosing
Procedure: Frozen patient PBMCs collected at baseline and at Cycle 1 Day 8 were processed into protein lysate and degradation of cereblon neo-substrate Ikaros was determined using Western blot via Jess™ Simple Western automated system. […] Patients receiving 300 mg Compound 5, 75.2-95.7% Ikaros degradation was detected.
Frozen PBMCs from patients were prepared and Ikaros protein levels were assessed using Western blot via Jess™ Simple Western automated system.
FIG. 7A, densitometric analysis of Ikaros degradation in all patients were obtained after normalization to β-actin and % Ikaros degradation was calculated relative to Baseline values from each patient.
For Ikaros degradation assessment, patient PBMCs were lysed in lysis buffer RIPA buffer (Fisher, PI89901), complete Mini EDTA-free protease inhibitor (Sigma 11836170001), Protease Inhibitor Cocktail (Sigma, P2714) and Phosphatase Inhibitor Cocktail 2 and 3 (Sigma, P5726 and P0044) and stored overnight at −80° C. Cells were then thawed and centrifuged for 5 min at 8000×g and lysate supernatants were transferred to a fresh tube. Protein levels were determined by BCA Assay performed according to manufacturer's protocol (EMD Millipore, cat. no. 71285-3). A total of 3 μg protein was loaded and 1:50 dilution of primary anti-Ikaros (Cell Signaling Technology, cat. 14859) and 1:50 anti-β-Actin (Cell Signaling Technology, cat. 8457) was used. […]

T1 sequence (Q9UKT9 whole entry): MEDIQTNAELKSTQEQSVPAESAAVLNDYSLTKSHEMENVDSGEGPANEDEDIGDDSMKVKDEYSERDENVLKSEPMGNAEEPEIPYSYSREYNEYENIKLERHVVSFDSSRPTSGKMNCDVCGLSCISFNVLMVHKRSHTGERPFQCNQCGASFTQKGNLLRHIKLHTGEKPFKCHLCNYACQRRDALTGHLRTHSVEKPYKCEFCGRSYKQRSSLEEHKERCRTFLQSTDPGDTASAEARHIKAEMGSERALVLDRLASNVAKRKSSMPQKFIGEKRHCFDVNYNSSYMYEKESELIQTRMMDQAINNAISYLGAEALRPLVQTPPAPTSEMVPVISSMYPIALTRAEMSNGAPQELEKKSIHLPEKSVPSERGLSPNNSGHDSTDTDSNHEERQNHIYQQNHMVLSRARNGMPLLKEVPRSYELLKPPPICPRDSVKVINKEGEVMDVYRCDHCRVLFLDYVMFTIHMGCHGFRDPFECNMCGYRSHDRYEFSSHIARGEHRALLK
T1 sequence (Q96SW2 whole entry): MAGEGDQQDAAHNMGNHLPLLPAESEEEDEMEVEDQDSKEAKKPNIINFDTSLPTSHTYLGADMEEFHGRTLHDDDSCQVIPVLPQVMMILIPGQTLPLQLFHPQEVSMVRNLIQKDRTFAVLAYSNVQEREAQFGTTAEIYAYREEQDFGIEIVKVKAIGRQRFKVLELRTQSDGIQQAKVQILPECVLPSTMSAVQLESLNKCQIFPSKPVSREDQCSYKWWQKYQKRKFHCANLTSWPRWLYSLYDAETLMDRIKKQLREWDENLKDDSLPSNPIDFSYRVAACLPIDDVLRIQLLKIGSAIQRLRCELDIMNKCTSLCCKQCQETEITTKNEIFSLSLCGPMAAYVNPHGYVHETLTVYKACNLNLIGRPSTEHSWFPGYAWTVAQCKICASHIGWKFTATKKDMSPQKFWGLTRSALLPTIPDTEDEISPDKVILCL
T1 sequence (Q16531 whole entry partner): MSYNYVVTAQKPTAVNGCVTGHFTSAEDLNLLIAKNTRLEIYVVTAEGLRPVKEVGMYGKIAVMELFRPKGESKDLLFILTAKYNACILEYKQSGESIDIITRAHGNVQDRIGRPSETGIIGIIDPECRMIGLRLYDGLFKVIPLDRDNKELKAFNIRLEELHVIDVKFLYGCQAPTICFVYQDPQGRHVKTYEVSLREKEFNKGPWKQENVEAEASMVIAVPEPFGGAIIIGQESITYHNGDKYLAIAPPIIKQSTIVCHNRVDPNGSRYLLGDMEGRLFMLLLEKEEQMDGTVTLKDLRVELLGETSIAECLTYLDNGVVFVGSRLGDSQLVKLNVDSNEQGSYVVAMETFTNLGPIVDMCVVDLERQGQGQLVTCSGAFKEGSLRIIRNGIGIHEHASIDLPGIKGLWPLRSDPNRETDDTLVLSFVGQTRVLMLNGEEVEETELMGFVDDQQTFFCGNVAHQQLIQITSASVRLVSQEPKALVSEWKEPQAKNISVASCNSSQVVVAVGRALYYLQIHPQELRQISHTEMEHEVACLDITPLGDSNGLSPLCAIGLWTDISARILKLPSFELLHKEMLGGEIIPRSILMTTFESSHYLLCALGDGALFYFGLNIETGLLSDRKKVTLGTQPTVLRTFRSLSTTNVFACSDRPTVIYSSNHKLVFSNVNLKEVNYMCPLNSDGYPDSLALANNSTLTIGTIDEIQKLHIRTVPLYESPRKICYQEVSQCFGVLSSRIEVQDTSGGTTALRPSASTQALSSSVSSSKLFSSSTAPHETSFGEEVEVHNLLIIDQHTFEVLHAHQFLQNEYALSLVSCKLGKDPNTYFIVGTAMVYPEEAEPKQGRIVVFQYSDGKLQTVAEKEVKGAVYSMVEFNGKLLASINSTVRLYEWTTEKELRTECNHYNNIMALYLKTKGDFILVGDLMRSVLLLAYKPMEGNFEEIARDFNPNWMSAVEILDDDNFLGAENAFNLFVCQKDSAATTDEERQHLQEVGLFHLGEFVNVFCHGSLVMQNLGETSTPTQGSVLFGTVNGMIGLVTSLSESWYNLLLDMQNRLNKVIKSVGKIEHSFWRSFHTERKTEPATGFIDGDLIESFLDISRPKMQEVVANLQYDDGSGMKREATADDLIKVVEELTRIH
T3 sequence (Q13422 whole entry): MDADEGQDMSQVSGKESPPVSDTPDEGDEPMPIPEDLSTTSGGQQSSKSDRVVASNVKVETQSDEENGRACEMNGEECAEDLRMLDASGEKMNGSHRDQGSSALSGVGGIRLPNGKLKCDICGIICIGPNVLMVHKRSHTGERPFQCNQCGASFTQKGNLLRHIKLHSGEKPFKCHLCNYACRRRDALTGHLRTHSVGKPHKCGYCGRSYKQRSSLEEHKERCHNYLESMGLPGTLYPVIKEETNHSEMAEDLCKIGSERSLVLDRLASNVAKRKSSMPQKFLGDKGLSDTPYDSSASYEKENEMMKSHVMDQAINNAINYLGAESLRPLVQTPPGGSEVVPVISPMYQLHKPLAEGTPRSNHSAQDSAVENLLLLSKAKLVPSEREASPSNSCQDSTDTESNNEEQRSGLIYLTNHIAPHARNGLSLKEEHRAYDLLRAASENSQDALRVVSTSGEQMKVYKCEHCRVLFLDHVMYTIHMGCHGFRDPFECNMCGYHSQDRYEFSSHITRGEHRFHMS
T3 sequence (Q96SW2 whole entry): as the sequence (Q96SW2 whole entry) above
T3 sequence (Q16531 whole entry partner): as the sequence (Q16531 whole entry partner) above
T2 sequence (Q06187 whole entry, species assumed): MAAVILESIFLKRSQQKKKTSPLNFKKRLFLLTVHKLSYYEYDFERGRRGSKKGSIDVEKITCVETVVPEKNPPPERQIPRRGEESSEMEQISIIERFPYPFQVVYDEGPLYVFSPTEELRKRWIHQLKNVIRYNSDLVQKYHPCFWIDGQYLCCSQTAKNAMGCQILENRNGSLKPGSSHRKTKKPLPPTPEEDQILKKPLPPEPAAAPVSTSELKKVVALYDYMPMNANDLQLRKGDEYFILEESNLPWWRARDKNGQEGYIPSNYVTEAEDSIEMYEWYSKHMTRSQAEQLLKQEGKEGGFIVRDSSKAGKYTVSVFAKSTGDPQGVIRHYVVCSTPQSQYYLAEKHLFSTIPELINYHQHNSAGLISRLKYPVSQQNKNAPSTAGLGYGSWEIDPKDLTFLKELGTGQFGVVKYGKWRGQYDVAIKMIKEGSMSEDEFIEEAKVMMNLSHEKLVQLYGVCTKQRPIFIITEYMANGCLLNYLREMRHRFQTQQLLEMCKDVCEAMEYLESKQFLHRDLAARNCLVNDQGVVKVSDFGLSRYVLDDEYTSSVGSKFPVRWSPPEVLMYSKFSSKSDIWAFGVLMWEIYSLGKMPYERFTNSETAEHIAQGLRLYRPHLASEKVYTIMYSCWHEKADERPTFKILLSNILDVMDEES

| Structure (SMILES) | DC50 (Aiolos) | Dmax (Aiolos) | BTK degradation (BTK) | Ikaros degradation (Ikaros; patients receiving 300 mg) | Ikaros degradation (Ikaros; patients receiving either 100 or 200 mg) | body weight loss (arthritis) |
| --- | --- | --- | --- | --- | --- | --- |
| NC(=O)c1ncc(N2CCCCC2)nc1Nc1ccc2c(c1)CCN(C1CN(c3ccc4c(c3)C(=O)N(C3CCC(=O)NC3=O)C4=O)C1)C2 (racemic) [Compound 2, rac-3-{[2-(1-{2-[(3R)-2,6-dioxopiperidin-3-yl]-1,3-dioxoisoindol-5-yl}azetidin-3-yl)-3,4-dihydro-1H-isoquinolin-6-yl]amino}-5-(piperidin-1-yl)pyrazine-2-carboxamide] | 5.2 nM | 94.7% | – | – | – | – |
| NC(=O)c1ncc(N2CCCCC2)nc1Nc1ccc2c(c1)CCN(C[C@H]1CCN(c3ccc4c(c3)C(=O)N(C3CCC(=O)NC3=O)C4=O)C1)C2 (stereo partly drawn) [Compound 1] | 27 nM | 77.4% | – | – | – | – |
| CN1CCN([C@@H]2CCCN(c3cnc(C(N)=O)c(Nc4ccc(C5CCN(CCCNc6cccc7c6C(=O)N(C6CCC(=O)NC6=O)C7=O)CC5)cc4)n3)C2)C1=O (stereo partly drawn) [Compound 4] | 8 nM | 87% | – | – | – | – |
| CN1CCN([C@H]2CCCN(c3cnc(C(N)=O)c(Nc4cnn(C5CCN(CC6CN(c7ccc8c(c7)C(=O)N(C7CCC(=O)NC7=O)C8=O)C6)CC5)c4)n3)C2)C1=O (stereo partly drawn) [Compound 6] | 23 nM | 70.8% | – | – | – | – |
| CN1CCN([C@@H]2CCCN(c3cnc(C(N)=O)c(Nc4ccc(C5CN(C6CCN(c7ccc8c(c7)C(=O)N(C7CCC(=O)NC7=O)C8=O)CC6)C5)cc4)n3)C2)C1=O (stereo partly drawn) [Compound 11] | 20 nM | 78.7% | – | – | – | – |
| CN1CCN([C@@H]2CCCN(c3cnc(C(N)=O)c(Nc4ccc(C5CCN(C[C@H]6CCN(c7ccc8c(c7)C(=O)N(C7CCC(=O)NC7=O)C8=O)C6)CC5)cc4)n3)C2)C1=O (stereo partly drawn) [Compound 13] | 33 nM | 73.9% | – | – | – | – |
| CN1CCN([C@@H]2CCCN(c3cnc(C(N)=O)c(Nc4ccc(C5CCN(CC6CCN(c7ccc8c(c7)C(=O)N(C7CCC(=O)NC7=O)C8=O)CC6)CC5)cc4)n3)C2)C1=O (stereo partly drawn) [Compound 14] | 11 nM | 74% | – | – | – | – |
| CN1CCN([C@@H]2CCCN(c3cnc(C(N)=O)c(Nc4ccc(C5CCN(C(=O)CCOCCNc6cccc7c6C(=O)N(C6CCC(=O)NC6=O)C7=O)CC5)cc4)n3)C2)C1=O (stereo partly drawn) [Compound 19] | 1 nM | 98.6% | – | – | – | – |

The remaining compounds from weak to strong by DC50 (Aiolos), led by results:

| DC50 (Aiolos) | Dmax (Aiolos) | BTK degradation (BTK) | Ikaros degradation (Ikaros; patients receiving 300 mg) | Ikaros degradation (Ikaros; patients receiving either 100 or 200 mg) | Structure (SMILES) | body weight loss (arthritis) |
| --- | --- | --- | --- | --- | --- | --- |
| 560 nM | 51.9% | – | – | – | CN1CCN([C@@H]2CCCN(c3cnc(C(N)=O)c(Nc4ccc(C5(C)CCN(C(=O)CCOCCC(=O)Nc6cccc7c6CN(C6CCC(=O)NC6=O)C7=O)CC5)cc4)n3)C2)C1=O (stereo partly drawn) [Compound 17] | – |
| 93 nM | 84.9% | – | – | – | CN1CCN([C@@H]2CCCN(c3cnc(C(N)=O)c(Nc4ccc(C5CCN(C[C@H]6CC[C@H](Nc7cccc8c7C(=O)N(C7CCC(=O)NC7=O)C8=O)CC6)CC5)cc4)n3)C2)C1=O (stereo partly drawn) [Compound 3] | – |
| 24 nM | 95.7% | – | – | – | CN1CCN([C@@H]2CCCN(c3cnc(C(N)=O)c(Nc4ccc(OCCCNc5ccc6c(c5)C(=O)N(C5CCC(=O)NC5=O)C6=O)cc4)n3)C2)C1=O (stereo partly drawn) [Compound 16] | – |
| 22 nM | 89.1% | ≥ 80% | 75.2-95.7% | 26.1-60.5% | NC(=O)c1ncc(N2CCCCC2)nc1Nc1ccc(C2CCN(C[C@@H]3CCN(c4ccc5c(c4)C(=O)N(C4CCC(=O)NC4=O)C5=O)C3)CC2)cc1 (stereo partly drawn) [Compound 5] | minimal body weight loss |
| 17 nM | 74.7% | – | – | – | CN1CCN([C@@H]2CCCN(c3cnc(C(N)=O)c(Nc4ccc(C5CCN(C6CN(c7ccc8c(c7)C(=O)N(C7CCC(=O)NC7=O)C8=O)C6)CC5)cc4)n3)C2)C1=O (stereo partly drawn) [Compound 15] | – |
| 12 nM | 86.5% | – | – | – | CN1CCN([C@@H]2CCCN(c3cnc(C(N)=O)c(Nc4ccc5c(c4)CCN(CC4CCN(c6ccc7c(c6)C(=O)N(C6CCC(=O)NC6=O)C7=O)CC4)C5)n3)C2)C1=O (stereo partly drawn) [Compound 9] | – |
| 9 nM | 83.1% | – | – | – | CN1CCN([C@@H]2CCCN(c3cnc(C(N)=O)c(Nc4ccc(N5CC6(C5)CN(c5ccc7c(c5)C(=O)N(C5CCC(=O)NC5=O)C7=O)C6)cc4)n3)C2)C1=O (stereo partly drawn) [Compound 10] | – |
| 9 nM | 81.6% | – | – | – | CN1CCN([C@@H]2CCCN(c3cnc(C(N)=O)c(Nc4ccc(N5CCN(CCCCc6cccc7c6CN(C6CCC(=O)NC6=O)C7=O)CC5)cc4)n3)C2)C1=O (stereo partly drawn) [Compound 18] | – |
| 7 nM | 65.1% | – | – | – | CN1CCN([C@@H]2CCCN(c3cnc(C(N)=O)c(Nc4ccc(N5CCN(C[C@@H]6[C@H]7CN(c8ccc9c(c8)C(=O)N(C8CCC(=O)NC8=O)C9=O)C[C@@H]67)CC5)cc4)n3)C2)C1=O (stereo partly drawn) [Compound 12] | – |
| 4 nM | 98.2% | – | – | – | CN1CCN([C@H]2CCCN(c3cnc(C(N)=O)c(Nc4ccc5c(c4)CCN(CC4CN(c6ccc7c(c6)C(=O)N(C6CCC(=O)NC6=O)C7=O)C4)C5)n3)C2)C1=O (stereo partly drawn) [Compound 7] | – |
| 1 nM | 98.4% | – | – | – | CN1CCN([C@@H]2CCCN(c3cnc(C(N)=O)c(Nc4ccc5c(c4)CCN(C4CN(c6ccc7c(c6)C(=O)N(C6CCC(=O)NC6=O)C7=O)C4)C5)n3)C2)C1=O (stereo partly drawn) [Compound 8] | – |

Reference: US20250017922A1, “BIFUNCTIONAL COMPOUNDS FOR DEGRADING BTK WITH ENHANCED IMID ACTIVITY” (NURIX THERAPEUTICS, INC., priority 2021, published 2025)
